Test system: HCC 1806 cells
Assay: Cell proliferation inhibitory effect on human breast cancer cell line (crystal violet, 72 hours)
Assay type: cell-based
Conditions: Homo sapiens, HCC1806, 72 h, read-out: Cell growth suppression IC50
Description: Human derived breast cancer cell line HCC 1806 cells were daily passaged at a cell density not exceeding 80% in ATCC recommended Roswell Park Memorial Institute medium (RPMI-1640) containing 10% fetal bovine serum (FBS). In order to start the test of cell proliferation inhibitory activity, HCC 1806 cells were suspended in the above medium, after seeing at 180 μL in each well of a 96-well flat bottom plate so that the number of cells per well was 2,000, the cells were cultured at 37° C. for 1 day in an incubator containing 5% carbon dioxide gas. On the next day, the test compound was dissolved in DMSO, and 20 μL of a drug additive solution diluted serially with distilled water to 10 times of the final concentration was added to each well of the culture plate of the cells, and the cells were cultured at 37° C. for 72 hours in an incubator containing 5% carbon dioxide gas. After culturing for 72 hours, 20 μL of glutaraldehyde was added to each well and allowed to stand for 30 minutes, then the plate was washed 10 times with water and was dried. 100 μL of a stain solution (0.05% crystal violet in a 20% methanol solution) was added to each well and allowed to stand for 30 minutes, then the plate was washed 10 times with water and was dried. 100 μL of an extract solution (0.1 N NaH2PO4: 100% ethanol=1:1) was added to each well and mixed, and the mixture was measured at a wavelength of 540 nm using a plate reader (MTP-450 manufactured by Corona Electric Co., Ltd.). The growth inhibition rate was calculated from the following formula, and the concentration (IC50 (μM)) of a test compound inhibiting 50% was determined. Growth inhibition rate (%)={(C−B)−(T−B)}/(C−B)×100
T: Absorbance of well to which test compound was added
C: Absorbance of wells to which no test compound was added
B: Absorbance of wells to which no cell suspension was added

Structure (SMILES)	IC50
Cc1c(C2CC2)ccc(F)c1[C@@H](C)[C@H](NS(=O)(=O)c1ccc(Cl)cc1C(N)=O)c1n[nH]c(=O)o1 [Example 26, 5-chloro-2-(N-((1S,2R)-2-(3-cyclopropy1-6-fluoro-2-methylphenyl)-1-(5-oxo-4,5-dihydro-1,3,4-oxadiazol-2-yl)propyl)sulfamoyl)benzamide]	980 nM
Cc1c(Br)ccc(F)c1[C@@H](C)[C@H](NS(=O)(=O)c1ccc(Cl)cc1C(N)=O)c1n[nH]c(=O)o1 [Example 30, 2-(N-((1S,2R)-2-(3-bromo-6-fluoro-2-methylphenyl)-1-(5-oxo-4,5-dihydro-1,3,4-oxadiazol-2-yl)propyl)sulfamoyl)-5-chlorobenzamide]	800 nM
Cc1c(Br)ccc(F)c1[C@@H](C)[C@H](NS(=O)(=O)c1ccc(Br)cc1C(N)=O)c1n[nH]c(=O)o1 [Example 35, 5-bromo-2-(N-((1S,2R)-2-(3-bromo-6-fluoro-2-methylphenyl)-1-(5-oxo-4,5-dihydro-1,3,4-oxadiazol-2-yl)propyl)sulfamoyl)benzamide]	670 nM
Cc1ccc(F)c([C@@H](C)[C@H](NS(=O)(=O)c2cc(C(=O)N(C)C)ccc2C(N)=O)c2n[nH]c(=O)o2)c1C [Example 37, 3-(N-((1S,2R)-2-(6-fluoro-2,3-dimethylphenyl)-1-(5-oxo-4,5-dihydro-1,3,4-oxadiazol-2-yl)propyl)sulfamoyl)-N1,N1-dimethylterephthalamide]	820 nM
Cc1ccc(F)c([C@@H](C)[C@H](NS(=O)(=O)c2cc(C(=O)N(C)C)c(Cl)cc2C(N)=O)c2n[nH]c(=O)o2)c1C [Example 39, 2-chloro-5-(N-((1S,2R)-2-(6-fluoro-2,3-dimethylphenyl)-1-(5-oxo-4,5-dihydro-1,3,4-oxadiazol-2-yl)propyl)sulfamoyl)-N1,N1-dimethyl terephthalamide]	230 nM
Cc1ccc(F)c([C@@H](C)[C@H](NS(=O)(=O)c2cnc(Cl)cc2C(N)=O)c2n[nH]c(=O)o2)c1C [Example 40, 2-chloro-5-(N-((1S,2R)-2-(6-fluoro-2,3-dimethylphenyl)-1-(5-oxo-4,5-dihydro-1,3,4-oxadiazol-2-yl)propyl)sulfamoyl)isonicotinamide]	590 nM
Cc1ccc(F)c([C@@H](C)[C@H](NS(=O)(=O)c2ccc(C(F)(F)F)cc2C(N)=O)c2n[nH]c(=O)o2)c1C [Example 41, 2-(N-((1S,2R)-2-(6-fluoro-2,3-dimethylphenyl)-1-(5-oxo-4,5 dihydro-1,3,4-oxadiazol-2-yl)propyl)sulfamoyl)-5-(trifluoromethyl)benzamide]	400 nM
[2H]C([2H])([2H])[C@H](c1c(F)ccc(C)c1C)[C@H](NS(=O)(=O)c1ccc(Cl)cc1C(N)=O)c1n[nH]c(=O)o1 [Example 43, 5-chloro-2-[[(1S,2R)-3,3,3-trideuterio-2-(6-fluoro-2,3-dimethylphenyl)-1-(2-oxo-3H-1,3,4-oxadiazol-5-yl)propyl]sulfamoyl]benzamide]	280 nM
COc1cc(Cl)ccc1S(=O)(=O)N[C@H](c1n[nH]c(=O)o1)[C@H](C)c1cccc2cccc(C)c12 [Example 71, 4-chloro-2-methoxy-N-((1S,2R)-2-(8-methylnaphthalen-1-yl)-1-(5-oxo-4,5-dihydro-1,3,4-oxadiazol-2-yl)propyl)benzenesulfonamide]	790 nM
COc1cc(Cl)ccc1S(=O)(=O)N[C@H](c1n[nH]c(=O)o1)[C@H](C)c1c(F)ccc2ccccc12 [Example 76, 4-chloro-N-((1S,2R)-2-(2-fluoronaphthalen-1-yl)-1-(5-oxo-4,5-dihydro-1,3,4-oxadiazol-2-yl)propyl)-2-methoxybenzenesulfonamide]	440 nM
COc1cc(Cl)ccc1S(=O)(=O)N[C@H](c1n[nH]c(=O)o1)[C@H](C)c1c(F)ccc(C)c1C [Example 83, 4-chloro-N-((1S,2R)-2-(6-fluoro-2,3-dimethylphenyl)-1-(5-oxo-4,5-dihydro-1,3,4-oxadiazol-2-yl)propyl)-2-methoxybenzenesulfonamide]	500 nM
Cc1ccc(F)c([C@@H](C)[C@H](NS(=O)(=O)c2ccc(Cl)cc2-c2ccno2)c2n[nH]c(=O)o2)c1C [Example 91, 4-chloro-N-((1S,2R)-2-(6-fluoro-2,3-dimethylphenyl)-1-(5-oxo-4,5-dihydro-1,3,4-oxadiazol-2-yl)propyl)-2-(isoxazol-5-yl)benzenesulfonamide]	980 nM
Cc1ccc(F)c([C@@H](C)[C@H](NS(=O)(=O)c2ccc(Cl)c3c2OCC(=O)N3C)c2n[nH]c(=O)o2)c1C [Example 93, 5-chloro-N-((1S,2R)-2-(6-fluoro-2,3-dimethylphenyl)-1-(5-oxo-4,5-dihydro-1,3,4-oxadiazol-2-yl)propyl)-4-methyl-3-oxo-3,4-dihydro-2H-benzo[b][1,4]oxazine-8-sulfonamide]	280 nM
CCN1CCOc2c(S(=O)(=O)N[C@H](c3n[nH]c(=O)o3)[C@H](C)c3c(F)ccc(C)c3C)ccc(Cl)c21 [Example 94, 5-chloro-4-ethyl-N-((1S,2R)-2-(6-fluoro-2,3-dimethylphenyl)-1-(5-oxo-4,5-dihydro-1,3,4-oxadiazol-2-yl)propyl)-3,4-dihydro-2H-benzo [b][1,4]oxazine-8-sulfonamide]	480 nM
CC(=O)OC1(C)CCOc2c(S(=O)(=O)N[C@H](c3n[nH]c(=O)o3)[C@H](C)c3c(F)ccc(C)c3C)ccc(Cl)c21 (stereo partly drawn) [Example 95, 5-chloro-8-(N-((1S,2R)-2-(6-fluoro-2,3-dimethylphenyl)-1-(5-oxo-4,5-dihydro-1,3,4-oxadiazol-2-yl)propyl)sulfamoyl)-4-methylchroman-4-yl acetate]	140 nM
CCc1ccc(F)c([C@@H](C)[C@H](NS(=O)(=O)c2ccc(Br)cc2C(N)=O)c2n[nH]c(=O)o2)c1C [Example 96, 5-bromo-2-(N-((1S,2R)-2-(3-ethyl-6-fluoro-2-methylphenyl)-1-(5-oxo-4,5-dihydro-1,3,4-oxadiazol-2-yl)propyl)sulfamoyl)benzamide]	950 nM
CC(=O)OC1(C)CCOc2c(S(=O)(=O)N[C@H](c3n[nH]c(=O)o3)[C@H](C)c3c(F)ccc(Cl)c3C)ccc(Cl)c21 (stereo partly drawn) [Example 100, 5-chloro-8-(N-((1S,2R)-2-(3-chloro-6-fluoro-2-methylphenyl)-1-(5-oxo-4,5-dihydro-1,3,4-oxadiazol-2-yl)propyl)sulfamoyl)-4-methylchroman-4-yl acetate]	390 nM
Cc1ccc(F)c([C@@H](C)[C@H](NS(=O)(=O)c2ccc(Cl)c3c2OCC(=O)N3CC(F)F)c2n[nH]c(=O)o2)c1C [Example 101, 5-chloro-4-(2,2-difluoroethyl)-N-((1S,2R)-2-(6-fluoro-2,3-dimethylphenyl)-1-(5-oxo-4,5-dihydro-1,3,4-oxadiazol-2-yl)propyl)-3-oxo-3,4-dihydro-2H-benzo[b][1,4]oxazine-8-sulfonamide]	810 nM
Cc1ccc(F)c([C@@H](C)[C@H](NS(=O)(=O)c2ccc(Cl)c3c2OCCN3CC(F)F)c2n[nH]c(=O)o2)c1C [Example 102, 5-chloro-4-(2,2-difluoroethyl)-N-((1S,2R)-2-(6-fluoro-2,3-dimethylphenyl)-1-(5-oxo-4,5-dihydro-1,3,4-oxadiazol-2-yl)propy1)-3,4-dihydro-2H-benzo[b][1,4]oxazine-8-sulfonamide]	660 nM
CC(=O)OC1(C(F)(F)F)CCOc2c1cccc2S(=O)(=O)N[C@H](c1n[nH]c(=O)o1)[C@H](C)c1c(F)ccc(C)c1C (stereo partly drawn) [Example 106, 8-(N-((1S,2R)-2-(6-fluoro-2,3-dimethylphenyl)-1-(5-oxo-4,5-dihydro-1,3,4-oxadiazol-2-yl)propyl)sulfamoyl)-4-(tifluoromethyl)chroman-4-yl acetate]	380 nM
COC(=O)c1nc(S(=O)(=O)N[C@H](c2n[nH]c(=O)o2)[C@H](C)c2c(F)ccc(C)c2C)ccc1Cl [Example 109, methyl 3-chloro-6-(N-((1S,2R)-2-(6-fluoro-2,3-dimethylphenyl)-1-(5-oxo-4,5-dihydro-1,3,4-oxadiazol-2-yl)propyl)sulfamoyl)picolinate]	400 nM
Cc1ccc(F)c([C@@H](C)[C@H](NS(=O)(=O)c2ccc(Cl)c(C(=O)N3CCOCC3)n2)c2n[nH]c(=O)o2)c1C [Example 113, 5-chloro-N-((1S,2R)-2-(6-fluoro-2,3-dimethylphenyl)-1-(5-oxo-4,5-dihydro-1,3,4-oxadiazol-2-yl)propyl)-6-(morpholine-4-carbonyl)pyridine-2-sulfonamide]	600 nM
Cc1ccc(F)c([C@@H](C)[C@H](NS(=O)(=O)c2ccc(Cl)c(C(=O)N3CCCC3)n2)c2n[nH]c(=O)o2)c1C [Example 114, 5-chloro-N-((1S,2R) 2-(6-fluoro-2,3-dimethylphenyl)-1-(5-oxo-4,5-dihydro-1,3,4-oxadiazol-2-yl)propyl)-6-(pyrrolidine-1-carbonyl)pyridine-2-sulfonamide]	370 nM
